The experiment deals with test plant species. Kind of experiment: Post-emergent herbicidal activity test (greenhouse, foliar spray, visual growth reduction). Type of experiment: in vivo. Conditions: post-emergence, 336 h, 140 g ai/ha, 14 days after application. The method, boiled down:
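Scoring used a 0 to 100 percent visual scale of growth reduction against solvent-treated controls, read 14 d after spraying. Applications went onto plants at first or second true leaf stage, 187 L/ha, with crop oil concentrate and X-77 surfactant in the carrier. Post-treatment watering was by subirrigation to avoid wash-off.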

Setting [1] is: ALOMY: blackgrass (Alopecurus myosuroides), read-out: Visual Growth Reduction (%) 14 Days After Application, ALOMY.
The mark [2] stands for this setting: AMARE: redroot pigweed (Amaranthus retroflexus), read-out: Visual Growth Reduction (%) 14 Days After Application, AMARE.
The mark [3] stands for this setting: AVEFA: wild oat (Avena fatua), read-out: Visual Growth Reduction (%) 14 Days After Application, AVEFA.
The mark [4] stands for this setting: CHEAL: lambsquarters (Chenopodium album), read-out: Visual Growth Reduction (%) 14 Days After Application, CHEAL.
The mark [5] stands for this setting: CIRAR: canada thistle (Cirsium arvense), read-out: Visual Growth Reduction (%) 14 Days After Application, CIRAR.
Setting [6] is: CYPES: yellow nutsedge (Cyperus esculentus), read-out: Visual Growth Reduction (%) 14 Days After Application, CYPES.
Setting [7] is: DIGSA: crabgrass (Digitaria sanguinalis), read-out: Visual Growth Reduction (%) 14 Days After Application, DIGSA.
Setting [8] is: ECHCG: barnyardgrass (Echinochloa crus-galli), read-out: Visual Growth Reduction (%) 14 Days After Application, ECHCG.
Setting [9] is: IPOHE: ivy-leaf morning glory (Ipomoea hederacea), read-out: Visual Growth Reduction (%) 14 Days After Application, IPOHE.
Where [10] appears, read: KCHSC: kochia (Bassia scoparia), read-out: Visual Growth Reduction (%) 14 Days After Application, KCHSC.
Where [11] appears, read: ORYSA: rice (Oryza sativa), read-out: Visual Growth Reduction (%) 14 Days After Application, ORYSA.
[12] abbreviates: SETFA: giant foxtail (Setaria faberi), read-out: Visual Growth Reduction (%) 14 Days After Application, SETFA.
Where [13] appears, read: SORVU: grain sorghum (Sorghum vulgare), read-out: Visual Growth Reduction (%) 14 Days After Application, SORVU.
The mark [14] stands for this setting: STEME: common chickweed (Stellaria media), read-out: Visual Growth Reduction (%) 14 Days After Application, STEME.
[15] abbreviates: TRZAS: wheat, spring (Triticum aestivum), read-out: Visual Growth Reduction (%) 14 Days After Application, TRZAS.

Read-outs that look alike come from different tables or passages of the source.

In patent US20230017045A1, “PYRIDINE AND PYRIMIDINE CARBOXYLATE HERBICIDES AND METHODS OF USE THEREOF” (Dow AgroSciences LLC, priority 2017, published 2023) one finds pest or weed control data, which are given here for eight molecules.

Take `COC(=O)c1nc(-c2ccc(SC(F)(F)F)cc2)c(F)cc1Cl` [F91, Methyl 3-chloro-5-fluoro-6-(4-((trifluoromethyl)thio)phenyl) picolinate]: the pest or weed control at 140 g/ha was 0 to 29% under setting [1]; 0 to 29% under setting [2]; 0 to 29% under setting [3]; 0 to 29% under setting [4]; 30 to 44% under setting [5]; 0 to 29% under setting [6]. The pest or weed control at 140 g/ha reads like this: under setting [7], 0 to 29%; under setting [8], 0 to 29%; under setting [9], 30 to 44%; under setting [10], 0 to 29%; under setting [11], 0 to 29%; under setting [12], 0 to 29%. Besides, the pest or weed control at 140 g/ha by setting is: under setting [13], 0 to 29%; under setting [14], 0 to 29%; under setting [15], 0 to 29%.
`COC(=O)c1nc(-c2ccc(C(F)(F)F)nc2)c(F)cc1Cl` [F92, methyl 5-chloro-3-fluoro-6′-(trifluoromethyl)-[2,3′-bipyridine]-6-carboxylate]: the pest or weed control at 140 g/ha is, setting by setting: under setting [1], 0 to 29%; under setting [2], 0 to 29%; under setting [3], 0 to 29%; under setting [4], 0 to 29%; under setting [5], 0 to 29%; under setting [6], 0 to 29%. Also, the pest or weed control at 140 g/ha fell in the range of 30 to 44% under setting [7]; 0 to 29% under setting [8]; 30 to 44% under setting [9]; 0 to 29% under setting [10]; 0 to 29% under setting [11]; 0 to 29% under setting [12]. In addition, the pest or weed control at 140 g/ha runs as follows: under setting [13], 0 to 29%; under setting [14], 0 to 29%; under setting [15], 0 to 29%.
Consider `COC(=O)c1nc(-c2ccc(C(F)(F)F)cc2)c(F)cc1Cl` [F93, Methyl 3-chloro-5-fluoro-6-(4-(trifluoromethyl)phenyl)picolinate], for which the pest or weed control at 140 g/ha runs as follows: under setting [1], 0 to 29%; under setting [2], 0 to 29%; under setting [3], 0 to 29%; under setting [4], 45 to 59%; under setting [5], 30 to 44%; under setting [6], 0 to 29%. In addition, the pest or weed control at 140 g/ha by setting is: under setting [7], 60 to 74%; under setting [8], 0 to 29%; under setting [9], 60 to 74%; under setting [10], 0 to 29%; under setting [11], 0 to 29%; under setting [12], 0 to 29%. For the same molecule, the pest or weed control at 140 g/ha runs as follows: under setting [13], 0 to 29%; under setting [14], 0 to 29%; under setting [15], 0 to 29%.
In the case of `O=C(O)c1nc(-c2ccc(SC(F)(F)F)cc2)ccc1Cl` [F94, 3-Chloro-6-(4-((trifluoromethyl)thio)phenyl)picolinic acid], the pest or weed control at 140 g/ha lay in the range of 0 to 29% under setting [1]; 0 to 29% under setting [2]; 0 to 29% under setting [3]; 0 to 29% under setting [4]; 30 to 44% under setting [5]; 0 to 29% under setting [6]. Further, the pest or weed control at 140 g/ha under setting [7] lay within 0 to 29%; the pest or weed control at 140 g/ha under setting [8] fell in the range of 0 to 29%; the pest or weed control at 140 g/ha under setting [9] lay in the range of 60 to 74%; the pest or weed control at 140 g/ha under setting [10] was 0 to 29%; the pest or weed control at 140 g/ha under setting [11] lay within 0 to 29%; the pest or weed control at 140 g/ha under setting [12] lay within 0 to 29%. The pest or weed control at 140 g/ha was 0 to 29% under setting [13], 0 to 29% under setting [14] and 0 to 29% under setting [15].
As to `O=C(O)c1nc(-c2ccc(C(F)(F)F)nc2)ccc1Cl` [F95, 5-Chloro-6′-(trifluoromethyl)-[2,3′-bipyridine]-6-carboxylic acid], the pest or weed control at 140 g/ha is, setting by setting: under setting [1], 0 to 29%; under setting [2], 0 to 29%; under setting [3], 0 to 29%; under setting [4], 0 to 29%; under setting [5], 0 to 29%; under setting [6], 0 to 29%. For the same molecule, the pest or weed control at 140 g/ha lay in the range of 0 to 29% under setting [7]; 0 to 29% under setting [8]; 45 to 59% under setting [9]; 0 to 29% under setting [10]; 0 to 29% under setting [11]; 0 to 29% under setting [12]. The pest or weed control at 140 g/ha is, setting by setting: under setting [13], 0 to 29%; under setting [14], 0 to 29%; under setting [15], 0 to 29%.
As to `O=C(O)c1nc(-c2ccc(C(F)(F)F)cc2)c(Cl)cc1Cl` [F96, 3,5-Dichloro-6-(4-(trifluoromethyl)phenyl)picolinic acid], the pest or weed control at 140 g/ha reads like this: under setting [1], 0 to 29%; under setting [2], 30 to 44%; under setting [3], 0 to 29%; under setting [4], 60 to 74%; under setting [5], 30 to 44%; under setting [6], 0 to 29%. Further, the pest or weed control at 140 g/ha lay within 0 to 29% under setting [7]; 0 to 29% under setting [8]; 75 to 84% under setting [9]; 0 to 29% under setting [10]; 0 to 29% under setting [11]; 45 to 59% under setting [12]. For the same molecule, the pest or weed control at 140 g/ha by setting is: under setting [13], 60 to 74%; under setting [14], 0 to 29%; under setting [15], 0 to 29%.
In the case of `COC(=O)c1nc(-c2ccc(SC(F)(F)F)cc2)ccc1Cl` [F97, Methyl 3-chloro-6-(4-((trifluoromethyl)thio)phenyl)picolinate], the pest or weed control at 140 g/ha was 0 to 29% under setting [1]; 0 to 29% under setting [2]; 0 to 29% under setting [3]; 0 to 29% under setting [4]; 0 to 29% under setting [5]; 0 to 29% under setting [6]. Further, the pest or weed control at 140 g/ha under setting [7] is 0 to 29%; the pest or weed control at 140 g/ha under setting [8] lay within 0 to 29%; the pest or weed control at 140 g/ha under setting [9] was 0 to 29%; the pest or weed control at 140 g/ha under setting [10] fell in the range of 0 to 29%; the pest or weed control at 140 g/ha under setting [11] fell in the range of 0 to 29%; the pest or weed control at 140 g/ha under setting [12] was 0 to 29%. Besides, the pest or weed control at 140 g/ha runs as follows: under setting [13], 0 to 29%; under setting [14], 0 to 29%; under setting [15], 0 to 29%.
For `COC(=O)c1nc(-c2ccc(SC(F)(F)F)cc2)c(Cl)cc1Cl` [F98, Methyl 3,5-dichloro-6-(4-((trifluoromethyl)thio)phenyl)picolinate], the pest or weed control at 140 g/ha fell in the range of 0 to 29% under setting [1]; 0 to 29% under setting [2]; 0 to 29% under setting [3]; 0 to 29% under setting [4]; 0 to 29% under setting [5]; 0 to 29% under setting [6]. In addition, the pest or weed control at 140 g/ha by setting is: under setting [7], 0 to 29%; under setting [8], 0 to 29%; under setting [9], 0 to 29%; under setting [10], 0 to 29%; under setting [11], 0 to 29%; under setting [12], 0 to 29%. Also, the pest or weed control at 140 g/ha was in the range of 0 to 29% under setting [13], 0 to 29% under setting [14] and 0 to 29% under setting [15].
